In general, ED50 refers to the dose at which the effect has come halfway, by size or by number of responders. A lower ED50 goes with greater potency.

The values that follow come from patent US4514410A, “Substituted 8-phenylisoxazolo[4,3-e][1,4]diazepin-5-ones” (Hoechst-Roussel Pharmaceuticals Inc., priority 1984, dated 1985).

The nature of assay [1]: Average conflict response ratio (anxiolytic). Format: in vivo. The settings on record: drug:control. On the procedure: The compounds of the invention are also useful as anxiolytic agents due to their ability to reduce anxiety in mammals. Anxiolytic activity is measured as the average conflict response ratio (drug:control) at 40 mg/kg of body weight.
The subject of assay [2] is extensor tonus in electroshocked mice. The assay is described as follows: Inhibition of extensor tonus induced by electroshock in mice (anticonvulsant). Format: in vivo. The settings on record: Mus musculus, effective dose for 50% inhibition of extensor tonus. From the text:
The anti-convulsant activity of some of the compounds of this invention expressed in terms of the effective dose for 50% inhibition of extensor tonus in mg/kg of body weight in electroshocked mice is given in Table I.

Turning to `CC1=C2C(=C(c3ccccc3Cl)N=CC(=O)N2C)NO1` [3,4-Dimethyl-8-(2-chlorophenyl)isoxazolo[4,3-e][1,4]diazepin-5-one], the “Average Conflict Response Ratio” value in assay [1] (at 40 mg/kg of body weight) turned out to be 18.2. For the same compound, it took a dose of 35.6 mg/kg to reach the 50% effect level in assay [2] (ED50). For `CC1=C2C(=C(c3ccccc3F)N=CC(=O)N2C)NO1` [3,4-Dimethyl-8-(2-fluorophenyl)isoxazolo[4,3-e][1,4]diazepin-5-one], the “Average Conflict Response Ratio” value in assay [1] (at 40 mg/kg of body weight) is listed as 11.2. For the same compound, the median effective dose (ED50) in assay [2] came to 79.8 mg/kg. For `CC1=C2C(=C(c3ccccc3)N=CC(=O)N2C)NO1` [3,4-Dimethyl-8-phenylisoxazolo[4,3-e][1,4]diazepin-5-one], the “Average Conflict Response Ratio” value in assay [1] (at 40 mg/kg of body weight) turned out to be 31.7. The compound also displayed an ED50 in assay [2] of 25.1 mg/kg. In the case of `CC(=O)Nc1nnc(S(N)(=O)=O)s1` [acetazolamide, reference compound], in assay [2], the ED50 is 29.1 mg/kg. As for `CNC1=Nc2ccc(Cl)cc2C(c2ccccc2)=[N+]([O-])C1` [chlordiazepoxide, reference compound], the “Average Conflict Response Ratio” value in assay [1] (@ 20 mg/kg (standard)) came out at 32.6.
